Test results from ChEMBL document CHEMBL3774316, “Design, synthesis and anti-HIV-1 evaluation of hydrazide-based peptidomimetics as selective gelatinase inhibitors” (Bioorg Med Chem, 2016).

Legend:
Aminopeptidase N = biological target: T1, Aminopeptidase N (Sus scrofa, UniProt P15145); assay: Inhibition of porcine microsomal aminopeptidase N preincubated for 30 mins using L-Leu-p-nitroanilide as substrate by UV-VIS spectrophotometer
T1 sequence (P15145 whole entry): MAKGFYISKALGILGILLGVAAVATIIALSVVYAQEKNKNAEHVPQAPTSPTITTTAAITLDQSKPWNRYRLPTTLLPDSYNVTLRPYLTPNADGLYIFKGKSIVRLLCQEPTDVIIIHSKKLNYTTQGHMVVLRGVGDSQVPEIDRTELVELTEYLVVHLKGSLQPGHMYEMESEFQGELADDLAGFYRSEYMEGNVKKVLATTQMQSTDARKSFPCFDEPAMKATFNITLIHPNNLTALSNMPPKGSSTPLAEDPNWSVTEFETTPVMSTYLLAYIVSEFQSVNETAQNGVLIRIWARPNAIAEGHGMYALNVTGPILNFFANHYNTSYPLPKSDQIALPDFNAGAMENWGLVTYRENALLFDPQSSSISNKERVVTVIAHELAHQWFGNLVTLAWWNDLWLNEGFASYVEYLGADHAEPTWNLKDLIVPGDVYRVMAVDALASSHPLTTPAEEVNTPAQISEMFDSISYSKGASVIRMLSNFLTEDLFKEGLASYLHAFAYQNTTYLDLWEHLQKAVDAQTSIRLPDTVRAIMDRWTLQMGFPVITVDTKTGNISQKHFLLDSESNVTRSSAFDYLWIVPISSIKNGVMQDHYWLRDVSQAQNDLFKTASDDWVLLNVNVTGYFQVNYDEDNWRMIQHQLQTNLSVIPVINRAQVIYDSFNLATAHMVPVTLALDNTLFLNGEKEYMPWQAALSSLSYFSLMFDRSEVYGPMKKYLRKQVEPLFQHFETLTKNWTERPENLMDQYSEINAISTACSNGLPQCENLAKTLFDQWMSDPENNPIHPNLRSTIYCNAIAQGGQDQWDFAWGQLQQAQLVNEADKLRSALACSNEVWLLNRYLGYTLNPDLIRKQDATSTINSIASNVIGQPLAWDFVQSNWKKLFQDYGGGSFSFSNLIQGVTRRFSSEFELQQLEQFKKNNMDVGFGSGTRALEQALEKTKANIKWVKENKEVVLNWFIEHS

[1] = test system: Human immunodeficiency virus 1; assay: Antiviral activity against HIV1 3B infected in human C8166 cells assessed as cytopathic effect by counting the number of syncytia by microscopy; assay type: functional, organism-based; conditions: Human immunodeficiency virus 1, 3B
C8166 = assay: Cytotoxicity against human C8166 cells after 72 hrs by MTT assay; assay type: functional; conditions: C8166, 72 h
[2] = Therapeutic index, ratio of CC50 for human C8166 cells to EC50 for HIV1 3B infected in human C8166 cells; assay type: cell-based; conditions: read-out: Ratio CC50/EC50
[3] = biological target: 72 kDa type IV collagenase (Homo sapiens, UniProt P08253); assay: Inhibition of gelatinase A (unknown origin) after 30 mins using succinylated gelatin as substrate
[4] = test system: Human immunodeficiency virus 1; assay: Antiviral activity against HIV1 3B infected in human C8166 cells assessed as reduction in p24 antigen level incubated for 2 hrs followed by cell plating for 72 hrs by ELISA method; assay type: functional, organism-based; conditions: Human immunodeficiency virus 1, 3B
[5] = test system: Human immunodeficiency virus 1; assay: Antiviral activity against HIV1 A17 infected in human C8166 cells assessed as reduction in p24 antigen level incubated for 4 hrs followed by cell plating for 72 hrs by ELISA method; assay type: functional, organism-based; conditions: Human immunodeficiency virus 1, A17, C8166
[6] = test system: Human immunodeficiency virus 1; assay: Antiviral activity against HIV1 74V infected in human C8166 cells assessed as reduction in p24 antigen level incubated for 4 hrs followed by cell plating for 72 hrs by ELISA method; assay type: functional, organism-based; conditions: Human immunodeficiency virus 1, 74V

72 kDa type IV collagenase, sequence (P08253 whole entry): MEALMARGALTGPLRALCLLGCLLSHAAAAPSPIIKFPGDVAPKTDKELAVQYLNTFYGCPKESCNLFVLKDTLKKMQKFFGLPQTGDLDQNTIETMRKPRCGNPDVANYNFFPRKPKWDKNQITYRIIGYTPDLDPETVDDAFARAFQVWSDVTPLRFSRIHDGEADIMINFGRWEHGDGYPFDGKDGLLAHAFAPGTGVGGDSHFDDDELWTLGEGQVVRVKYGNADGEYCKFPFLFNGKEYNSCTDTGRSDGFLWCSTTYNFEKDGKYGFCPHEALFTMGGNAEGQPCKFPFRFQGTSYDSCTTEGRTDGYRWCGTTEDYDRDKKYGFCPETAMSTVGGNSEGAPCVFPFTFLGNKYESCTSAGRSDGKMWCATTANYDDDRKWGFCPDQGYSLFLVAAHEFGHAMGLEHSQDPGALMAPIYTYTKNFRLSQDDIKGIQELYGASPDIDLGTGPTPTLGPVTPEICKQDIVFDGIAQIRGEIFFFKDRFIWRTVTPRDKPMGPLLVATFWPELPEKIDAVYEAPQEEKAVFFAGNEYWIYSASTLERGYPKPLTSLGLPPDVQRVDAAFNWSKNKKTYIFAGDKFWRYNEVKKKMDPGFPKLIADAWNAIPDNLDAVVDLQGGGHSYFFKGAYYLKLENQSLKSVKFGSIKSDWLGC

Compound	IC50 (Aminopeptidase N)	EC50 [1]	CC50 (C8166)	selectivity ratio [2]	IC50 [3]	EC50 [4]	EC50 [5]	EC50 [6]
Cc1ccc(S(=O)(=O)N2CC3(C[C@H]2C(=O)NN)SCCS3)cc1	> 1000 µM	239 µM	> 519 µM	> 2.2				
C/C(=N\NC(=O)Cn1c(=O)c(C)nc2ccccc21)c1ccc(Cl)cc1	125 µM	> 543 µM	> 543 µM		13.2 µM			
CC(=O)NNC(=O)Cn1c(=O)c(C)nc2ccccc21	328 µM	> 730 µM	> 730 µM		> 500 µM			
Cc1nc2ccccc2n(CC(=O)N/N=C/c2ccc(Cl)cc2)c1=O	449 µM	32.2 µM	> 565 µM	> 17.5	81 µM			
COc1ccc(/C=N/NC(=O)Cn2c(=O)c(C)nc3ccccc32)c(OC)c1	243 µM	126 µM	> 526 µM	> 4.2	74.9 µM			
COc1cccc(/C=N/NC(=O)Cn2c(=O)c(C)nc3ccccc32)c1O	80.9 µM	2.79 µM	115 µM	41.3	7.17 µM	6.05 µM	2.46 µM	3480 nM
Cc1nc2ccccc2n(CC(=O)NNC(=O)c2ccc(Cl)cc2)c1=O	272 µM	169 µM	> 540 µM	> 3.2	34.8 µM			
Cc1nc2ccccc2n(CC(=O)N/N=C/Cc2ccccc2)c1=O	223 µM	82.8 µM	> 599 µM	> 7.2	36 µM			
Cc1ccc(/C=N/NC(=O)Cn2c(=O)c(C)nc3ccccc32)cc1	307 µM	51.3 µM	262 µM	5.1	38.6 µM			
COc1ccc(/C=N/NC(=O)Cn2c(=O)c(C)nc3ccccc32)cc1OC	481 µM	81 µM	> 526 µM	> 6.5	28.8 µM			
Cc1nc2ccccc2n(CC(=O)NNC(=O)Cc2ccccc2)c1=O	333 µM	296 µM	> 571 µM	> 1.9	159 µM			
C/C(=N\NC(=O)Cn1c(=O)c(C)nc2ccccc21)c1ccc([N+](=O)[O-])cc1	389 µM	145 µM	> 528 µM	> 3.6	90.8 µM			
C/C(=N\NC(=O)Cn1c(=O)c(C)nc2ccccc21)c1ccccc1Cl	439 µM	> 543 µM	> 543 µM		112 µM			
Cc1ccc(S(=O)(=O)N2CC3(C[C@H]2C(=O)N/N=C/c2ccccc2[N+](=O)[O-])SCCS3)cc1	> 1000 µM	32.9 µM	65 µM	1.9	0.24 µM			
Cc1ccc(S(=O)(=O)N2CC3(C[C@H]2C(=O)N/N=C/c2ccccc2F)SCCS3)cc1	> 1000 µM	38.8 µM	280 µM	7.2	1.89 µM			
Cc1nc2ccccc2n(CC(=O)N/N=C/c2ccccc2)c1=O	341 µM	121 µM	> 625 µM	> 5.2	67 µM			
Cc1nc2ccccc2n(CC(=O)N/N=C/c2ccco2)c1=O	103 µM	301 µM	> 645 µM	> 2.1	17.2 µM			
C/C(=N\NC(=O)Cn1c(=O)c(C)nc2ccccc21)c1cccc(Cl)c1	> 1000 µM	> 543 µM	> 543 µM		567 µM			
Cc1nc2ccccc2n(CC(=O)NNC(=O)c2c(Cl)cccc2Cl)c1=O	299 µM	51.6 µM	153 µM	2.97	58.2 µM			
Cc1nc2ccccc2n(CC(=O)N/N=C/c2ccc(N(C)C)cc2)c1=O	331 µM	159 µM	355 µM	2.2	64.3 µM			
C/C(=N\NC(=O)Cn1c(=O)c(C)nc2ccccc21)c1ccccc1	99.9 µM	54.9 µM	491 µM	8.9	9.39 µM			
Cc1nc2ccccc2n(CC(=O)N/N=C/c2ccc([N+](=O)[O-])cc2)c1=O	644 µM	42.1 µM	> 548 µM	> 7.7	246 µM			
Cc1nc2ccccc2n(CC(=O)NNC(=O)c2ccccc2)c1=O		273 µM	> 595 µM		187 µM			
Cc1nc2ccccc2n(CC(=O)NN)c1=O	257 µM	> 862 µM	> 862 µM		98 µM			
COc1cc(/C=N/NC(=O)Cn2c(=O)c(C)nc3ccccc32)cc(OC)c1OC	57.6 µM	83 µM	> 488 µM	> 5.9	223 µM			
COc1ccc(/C=C/C(=O)N2C[C@@H](NC(=O)c3cccnc3)C[C@H]2C(=O)NO)cc1OC	117 µM	33 µM	> 454 µM	> 13.8				
O=C1Nc2ccc(Cl)cc2[C@@](C#CC2CC2)(C(F)(F)F)O1 [EFAVIRENZ]							184 µM	
Cc1cn([C@H]2C[C@H](N=[N+]=[N-])[C@@H](CO)O2)c(=O)[nH]c1=O [ZIDOVUDINE]		0.00794 µM	4680 µM	589000		0.00436 µM		1.52 nM
